In one series the target is Ba/F3-TEL-FGFR1 (Homo sapiens, UniProt P11362+P41212). As to the kind of experiment: Cell viability (proliferation inhibition) of Ba/F3 cells, CellTiter Glo. Conditions: read-out: Ba/F3 cell FGFR1 (IC50 nM), 72 h.
In a further series the target is Ba/F3-TEL-FGFR2 (Homo sapiens, UniProt P21802+P41212). Described as above. Conditions: read-out: Ba/F3 cell FGFR2 (IC50 nM), 72 h.
The nature of series [1]: Pharmacokinetic test in rats. In kind it is in vivo, male SD rats. Conditions: rat, plasma, oral gavage administration, 10 mg/kg. How it is done: Rat pharmacokinetic experiments were performed using male SD rats, 180-220g, provided by Beijing Vital River Laboratory Animal Technology Co., Ltd. 3 rats that were fasted overnight were taken, and administered orally by gavage (10 mg/kg). Blood samples were collected before administration, as well as 5, 15, 30 min and 1, 2, 4, 6, 8, 24 h after administration; another 3 rats were taken and administered intravenously (1 mg/kg), blood samples were collected before administration, as well as 5, 15, 30 min and 1, 2, 4, 6, 8, 24 h after administration. Blood sample was centrifuged at 6800g, 2-8 °C for 6 min, and plasma was collected, and stored at -80 °C. Plasma of each time point was taken, 10 times the amount of 50% methanol acetonitrile solution containing internal standard was added, and mixed by vortex for 5 min, centrifuged at 18000 rpm at 4 °C for 10 min, and the supernatant was taken directly for LC-MS/MS analysis. The main pharmacokinetic parameters were analyzed using WinNonlin8.2 software for non compartmental model analysis. Table 3: pharmacokinetic test in rats results of test compounds

Bounds are passed on as bounds.

Experimental findings from patent EP4553077A1 (Kinoteck Therapeutics Co., Ltd, priority 2022, dated 2024) are described below.

Chain of Ba/F3-TEL-FGFR2 (P21802 481-770 limits assumed, one chain of several): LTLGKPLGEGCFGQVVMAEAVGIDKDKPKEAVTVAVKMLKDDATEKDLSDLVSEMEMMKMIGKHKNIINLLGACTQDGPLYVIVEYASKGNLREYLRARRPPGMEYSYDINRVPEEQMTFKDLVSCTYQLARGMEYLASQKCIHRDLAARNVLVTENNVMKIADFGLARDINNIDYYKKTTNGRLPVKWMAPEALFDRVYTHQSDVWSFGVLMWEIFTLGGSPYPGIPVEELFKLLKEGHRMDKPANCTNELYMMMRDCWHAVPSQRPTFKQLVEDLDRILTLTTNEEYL
Chain of Ba/F3-TEL-FGFR1 (P11362 478-767 limits assumed, one chain of several): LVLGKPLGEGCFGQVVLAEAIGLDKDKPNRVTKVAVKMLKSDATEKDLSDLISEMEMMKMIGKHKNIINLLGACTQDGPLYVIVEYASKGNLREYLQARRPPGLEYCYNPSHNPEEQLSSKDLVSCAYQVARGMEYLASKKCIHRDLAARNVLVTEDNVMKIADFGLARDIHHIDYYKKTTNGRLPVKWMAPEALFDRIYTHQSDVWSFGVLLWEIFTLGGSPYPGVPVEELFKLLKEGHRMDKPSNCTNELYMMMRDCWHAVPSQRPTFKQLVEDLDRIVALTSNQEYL

For the molecule `C=C(C)C(=O)Nc1ccc(-c2c(-c3ccc(N=S4(=O)CCCC4)cc3)c3c(N)ncnc3n2C)cc1` [Compound 31], the IC50 amounted to 2090 nM on Ba/F3-TEL-FGFR1 and 8.3 nM on Ba/F3-TEL-FGFR2.

As to `C=C(C)C(=O)Nc1ccc(-c2c(-c3ccc(N=S4(=O)CCCC4)c(F)c3)c3c(N)ncnc3n2C)c(C(F)F)c1` [Compound 59, N-(4-(4-amino-5-(3-fluoro-4-((1-oxotetrahydro-1 λ^6-thiophene-1-ylidene)amino)phenyl) -7-methyl-7H-pyrrolo [2,3-d]pyrimidin-6-yl) -3-(difluoromethyl)phenyl) methacrylamide], the IC50 was 1320 nM on Ba/F3-TEL-FGFR1 and 7.8 nM on Ba/F3-TEL-FGFR2.

Consider `C=C(C)C(=O)Nc1ccc(-c2c(-c3ccc(N=S4(=O)CC(C)(C)C4)cc3)c3c(N)ncnc3n2C)c(F)c1` [Compound 63], for which, in series [1], the AUC(0-t) was found to be 1700 ng·h/mL, the highest level (Cmax) was 556 ng/mL, the Tmax amounted to 0.5 h and the half-life was 2.59 h. Moreover, at Ba/F3-TEL-FGFR1, the IC50 was determined as 396 nM. Also, the IC50 at Ba/F3-TEL-FGFR2 amounted to 1.1 nM.

In the case of `C=C(C)C(=O)Nc1ccc(-c2c(-c3ccc(N=S4(=O)CCC4)c(F)c3)c3c(N)ncnc3n2C)c(C)c1` [Compound 70], the values for the IC50 on Ba/F3-TEL-FGFR1 and at Ba/F3-TEL-FGFR2 were 775 nM and 2.7 nM, respectively.

Regarding `C=C(C)C(=O)Nc1ccc(-c2c(-c3ccc(N=S4(=O)CCC4)c(F)c3)c3c(N)ncnc3n2C)c(F)c1` [Compound 75], the IC50 on Ba/F3-TEL-FGFR1 amounted to 701 nM; at Ba/F3-TEL-FGFR2 it was 0.8 nM.

For `C=C(C)C(=O)Nc1ccc(-c2c(-c3cc(F)c(N=S4(=O)CCC4)cc3F)c3c(N)ncnc3n2C)c(F)c1` [Compound 77, N-(4-(4-amino-5-(2,5-difluoro-4-((1-oxo-1λ^6-thiocyclobutan-1-ylidene)amino)phenyl) -7-methyl-7H-pyrrolo [2,3-d]pyrimidin-6-yl) -3-fluorophenyl) methacrylamide], the IC50 on Ba/F3-TEL-FGFR1 came to 884 nM; at Ba/F3-TEL-FGFR2, 4.7 nM.

As to `[2H]C([2H])([2H])n1c(-c2ccc(NC(=O)C(=C)C)cc2F)c(-c2ccc(N=S3(=O)CCCC3)c(Cl)c2)c2c(N)ncnc21` [Compound 82, N-(4-(4-amino-5-(3-chloro-4-((1-oxidetetrahydro-1λ^6-thiophene-1-ylidene)amino)phenyl)-7-(methyl-d3)-7H-pyrrolo[2,3-d]pyrimidin-6-yl)-3-fluorophenyl) methacrylamide], the results for the IC50 on Ba/F3-TEL-FGFR1 and at Ba/F3-TEL-FGFR2 were 484 nM and 0.8 nM, respectively.

Regarding `[2H]C([2H])([2H])n1c(-c2ccc(NC(=O)C(=C)C)cc2Cl)c(-c2ccc(N=S3(=O)CCC3)c(F)c2)c2c(N)ncnc21` [Compound 84, N-(4-(4-amino-5-(3-fluoro-4-(1-oxo-1λ^6-thietan-1-imino)phenyl)-7-(methyl-d3)-7H-pyrrolo[2,3-d]pyrimidin-6-yl)-3-chlorophenyl)methacrylamide], the IC50 at Ba/F3-TEL-FGFR1 is 250 nM; at Ba/F3-TEL-FGFR2, 0.8 nM.

In the case of `C=C(C)C(=O)Nc1ccc(-c2c(-c3ccc(N=S4(=O)CCCC4)c(C)c3)c3c(N)ncnc3n2C)c(F)c1` [Compound 87, N-(4-(4-amino-7-methyl-5-(3-methyl-4-((1-tetrahydro-1λ^6-thiophene-1-ylidene)amino)phenyl) -7H-pyrrolo [2,3-d]pyrimidin-6-yl) -3-fluorophenyl) methacrylamide], the IC50 at Ba/F3-TEL-FGFR1 turned out to be 666 nM; on Ba/F3-TEL-FGFR2, 2.1 nM.

On to `C=C(C)C(=O)Nc1ccc(-c2c(-c3ccc(N=S4(=O)CCCC4)c(C(F)F)c3)c3c(N)ncnc3n2C)c(F)c1` [Compound 89, N-(4-(4-amino-5-(3-(difluoromethyl) -4-((1-tetrahydro-1λ^6-thiophene-1-ylidene)amino)phenyl) -7-methyl-7H-pyrrolo [2,3-d]pyrimidin-6-yl) -3-fluorophenyl) methacrylamide], for which the figures for the IC50 at Ba/F3-TEL-FGFR1 and on Ba/F3-TEL-FGFR2 were 686 nM and 6.5 nM, respectively.

Turning to `C=C(C)C(=O)Nc1ccc(-c2c(-c3ccc(N=S(=O)(C4CC4)C4CC4)cc3)c3c(N)ncnc3n2C)cc1` [Compound 93, N-(4-(4-amino-5-(4-((dicyclopropyl (oxo)-λ^6-sulfaneylidene)amino)phenyl)-7-methyl-7H-pyrrolo [2,3-d]pyrimidin-6-yl)phenyl) methacrylamide], the IC50 on Ba/F3-TEL-FGFR2 was 31.7 nM.

In the case of `[2H]C([2H])([2H])n1c(-c2ccc(NC(=O)C(=C)C)cc2Cl)c(-c2ccc(N=S3(=O)CCC3)c(Cl)c2)c2c(N)ncnc21` [Compound 95, N-(4-(4-amino-5-(3-chloro-4-((1-oxo-1 λ^6-thietan-1-ylidene)amino)phenyl) -7-(methyl-d3) -7H-pyrrolo [2,3-d]pyrimidin-6-yl) -3-chlorophenyl) methacrylamide], the IC50 amounted to 484 nM on Ba/F3-TEL-FGFR1 and 0.7 nM on Ba/F3-TEL-FGFR2.

Turning to `[2H]C([2H])([2H])n1c(-c2ccc(NC(=O)C(=C)C)cc2F)c(-c2ccc(N=S(C)(=O)c3ccccc3)c(F)c2)c2c(N)ncnc21` (stereo not drawn) [Compound 96, N-(4-(4-amino-5-(3-fluoro-4-((methyl (oxo) (phenyl) - λ^6-sulfaneylidene)amino)phenyl) -7-(methyl-d3) -7H-pyrrolo [2,3-d]pyrimidin-6-yl) -3-fluorophenyl) methacrylamide], the IC50 on Ba/F3-TEL-FGFR2 was 29.8 nM.

As for `C=C(C)C(=O)Nc1ccc(-c2c(-c3ccc(N=S4(=O)CCC4)c(F)c3)c3c(N)ncnc3n2C)c(C)c1` [Compound 99], the IC50 on Ba/F3-TEL-FGFR2 was found to be 2.7 nM.

In the case of `C=C(C)C(=O)Nc1ccc(-c2c(-c3ccc(N=S(=O)(CC)CC)c(F)c3)c3c(N)ncnc3n2C)c(C)c1` [Compound 101], the IC50 on Ba/F3-TEL-FGFR2 was 4.7 nM.

Take `C=C(C)C(=O)Nc1ccc(-c2c(-c3ccc(N=S(=O)(CC)CC)cc3)c3c(N)ncnc3n2CC(F)(F)F)c(F)c1` [Compound 103]: the IC50 on Ba/F3-TEL-FGFR2 stood at 13.9 nM.

With `C=C(C)C(=O)Nc1ccc(-c2c(-c3ccc(N=S4(=O)CCOCC4)cc3)c3c(N)ncnc3n2C)c(F)c1` [Compound 105], the IC50 on Ba/F3-TEL-FGFR2 stood at 20.9 nM.

Turning to `C=C(C)C(=O)Nc1ccc(-c2c(-c3ccc(N=S4(=O)CC(C)(C)C4)c(F)c3)c3c(N)ncnc3n2C)c(F)c1` [Compound 106, N-(4-(4-amino-5-(4-((3,3-dimethyl-1-oxo-1 λ^6-thiocyclobutan-1-ylidene)amino) -3-fluorophenyl) -7-methyl-7H-pyrrolo [2,3-d]pyrimidin-6-yl) -3-fluorophenyl) methacrylamide], the IC50 at Ba/F3-TEL-FGFR2 worked out at 2.2 nM.

Regarding `C=C(C)C(=O)Nc1ccc(-c2c(-c3ccc(N=S(C)(C)=O)cc3)c3c(N)ncnc3n2C)c(F)c1` [Compound 107], the values for the IC50 on Ba/F3-TEL-FGFR1 and on Ba/F3-TEL-FGFR2 were 3630 nM and 15.6 nM, respectively.

For `[2H]C([2H])([2H])n1c(-c2ccc(NC(=O)C(=C)C)cc2F)c(-c2ccc(N=S3(=O)C=CC(C)(C)C3)cc2)c2c(N)ncnc21` (stereo not drawn) [Compound 108, N-(4-(4-amino-5-(4-((3,3-dimethyl-1-oxo-1 λ^6-thiophene-1-ylidene)amino)phenyl) -7-(methyl-d3) -7H-pyrrolo [2,3-d]pyrimidin-6-yl) -3-fluorophenyl) methacrylamide], the IC50 at Ba/F3-TEL-FGFR2 came out at 2.5 nM.

With `C=CC(=O)Nc1ccc(-c2c(-c3ccc(N=S4(=O)CCCC4)cc3)c3c(N)ncnc3n2C)c(F)c1` [Compound 110], the IC50 on Ba/F3-TEL-FGFR2 came out at 2 nM.

Consider `C=C(F)C(=O)Nc1ccc(-c2c(-c3ccc(N=S4(=O)CCCC4)cc3)c3c(N)ncnc3n2C)c(F)c1` [Compound 111], for which the IC50 on Ba/F3-TEL-FGFR2 is under 0.15 nM.

`CC#CC(=O)Nc1ccc(-c2c(-c3ccc(N=S4(=O)CCCC4)cc3)c3c(N)ncnc3n2C)c(F)c1` [Compound 112, N-(4-(4-amino-7-methyl-5-(4-((1-tetrahydro-1λ^6-thiophene-1-ylidene)amino)phenyl) -7H-pyrrolo [2,3-d]pyrimidin-6-yl) -3-fluorophenyl) but-2-ynamide]: on Ba/F3-TEL-FGFR2, the IC50 was found to be 2 nM.

With `[2H]c1cc(-c2c(-c3ccc(NC(=O)C(=C)C)cc3F)n(C)c3ncnc(N)c23)cc([2H])c1N=S1(=O)CCCC1` [Compound 113], the IC50 on Ba/F3-TEL-FGFR2 is 1.8 nM.

Turning to `[2H]c1c([2H])c(-c2c(-c3ccc(NC(=O)C(=C)C)cc3F)n(C)c3ncnc(N)c23)c([2H])c([2H])c1N=S1(=O)CCCC1` [Compound 114, N-(4-(4-amino-7-methyl-5-(4-((1-oxidetetrahydro-1 λ^6-thiophene-1-ylidene)amino)phenyl-2,3,5,6-d4) -7H-pyrrolo [2,3-d]pyrimidin-6-yl) -3-fluorophenyl) methacrylamide], the IC50 on Ba/F3-TEL-FGFR2 was 1.2 nM.

Regarding “N- (4- (4-amino-5- (4- (cyclopentyl (methyl) (oxo) - λ^6-sulfanylidene) amino) phenyl) -7-methyl-7H-pyrrole [2,3-d] pyrimidin-6-yl) -3-fluorophenyl) methacrylamide [Compound 49]”, the IC50 at Ba/F3-TEL-FGFR2 stood at 12.8 nM.
